Literature values, collected in US20210299134A1, “TREATMENT OF B CELL MALIGNANCIES” (MEI Pharma, Inc., priority 2018, published 2021).

Assays:
TREGs = settings: after administration of a single dose; cited from earlier work
B-cell malignancies = settings: a day per week dosing after once daily dosing for two 28-day cycles; preliminary data; cited from earlier work
[1] = cited from earlier work

Row | Compound | time to TREGs repopulation (TREGs) | incidence of severe irAEs on IS (B-cell malignancies) | tumor progression on IS (B-cell malignancies) | plasma levels versus tissue levels ([1]; FIG. 6B) | plasma levels >IC90, share of time ([1]; once weekly dosing) [%]
1 | denileukin diftitox | approximately 14 days | – | – | – | –
2 | CCOc1c([C@H](C)n2nc(C)c3c(N)ncnc32)cc(Cl)c(F)c1[C@@H]1CNC(=O)C1 [parsaclisib] | – | decrease in the incidence of severe irAEs | high rate of tumor progression | plasma approximates tissue levels | 32
